The first test deals with androgen receptor (AR) in LNCaP and/or VCaP cells. Description: Androgen Receptor ELISA assay (AR degradation). It counts as cell-based. Particulars: LNCaP and/or VCaP cells; 5 hours incubation; media with R1881; read-out: DC50 Code* (degradation of AR ELISA). Here is the method:
Androgen Receptor ELISA Assay. […] The protocols used with VCaP cells are described below.
The cells were grown for a minimum of 3 days.
(2)(i) A 10× stock plate in media was made; (ii) 2.5 μL of the 1000× stock was transferred to a new 10× stock plate (use 12 channel pipet, start at A (DMSO control) work thru H. When 247.5 µL of media was added to this plate, it served as a 10× stock; (iii) made media+1 nM R1881 for making 10× stock plate; (iv) added 247.5 μL of media with 1 nM R1881 to each well of the 10× stock plate, mix.
Then 22 μL of 10× stock was added to cells and incubated for 5 hours. […] Media was aspirated, and 100 μL 1× cell lysis buffer/well was added. The cells were placed on a shaker located in a cold room for 10 minutes and shaken at speed 7. The lysate mixture was mix and 20 μL transferred to 100 μl of Diluent in ELISA plate (0.15 μg/ml-[…]). The lysate-diluent mixture was store at 4° C. overnight on a shaker located in a cold room at speed 5 (gentle swirl).
The lysate-diluent mixture was shaken for 30 minutes at 37° C. The mouse AR antibody, anti-mouse antibody, TMB, and STOP solution were allowed to come to room temperature. The 1×ELISA buffer included in kit was made and loaded in reservoir. Media from the plate was discarded, the ELISA plate was tapped hard on paper towel, and washed 4×200 μl ELISA wash buffer using a plate washer for the first three washes and an eight channel aspirator for the fourth wash to more thoroughly aspirate the solution.
Next, 100 μL/well of mouse AR detection Ab was added; the plate was covered and shaken at 37° C. for 1 hour; media was discarded from the plates, the plates tapped on a paper towel and washed four times with 200 μL ELISA wash buffer with a plate washer for the first three washes and an eight channel aspirator for the fourth wash; 100 μL/well of anti-mouse—HRP conjugated Ab (comes with the kit) was added; the plates was cover and shaken at 37° C. for 30 minutes; the TMB reagent was allowed to come to room temperature; the media from the plate was discarded, the plates tapped on paper towel, and washed four times with 200 μL ELISA wash buffer with a plate washer for the first three washes and an eight channel aspirator for the fourth wash; plates were tapped on paper towel; 100 μL TMB was added to each well and the plate shaken for 2 minutes—while watching color. STOP solution (100 μL) was added when light blue color developed.
Data was analyzed and plotted using GraphPad Prism software. Exemplary compounds of Tables 1A, 1B, and 1C were assayed and the data shown below in Tables 2A, 2B, and 2C. DC50 (nM) categories (degradation of AR ELISA in LNCaP and/or VCaP cells) of Tables 2A, 2B, and 2C are as follows: A<1 nM; 1≤B<10 nM; 10≤C<100 nM; D≥100 nM. Dmax (%) categories (degradation of AR ELISA in LNCaP and/or VCaP cells) of Table 2 are as follows: A≥70; 50≤B<70; C<50
In general, DC50 refers to the concentration at which degradation of the target reaches its halfway point. Turning to `COc1cc(O[C@H]2C[C@H](N(CC3CCN(c4ncc(C(=O)NC5CC6(C5)CN(Cc5cc(C)c(C#N)c(C)c5)C6)cn4)CC3)C(C)C)C2)cc2c1C(=O)N(C1CCC(=O)NC1=O)C2=O` (mixture of isomers) [Compound 12, rac-N-(2-(4-cyano-3,5-dimethylbenzyl)-2-azaspiro[3.3]heptan-6-yl)-2-(4-((((1r,3r)-3-((2-(2,6-dioxopiperidin-3-yl)-7-methoxy-1,3-dioxoisoindolin-5-yl)oxy)cyclobutyl) (isopropyl)amino)methyl)piperidin-1-yl)pyrimidine-5-carboxamide], the DC50 was more than 100 nM.
Same read-out and setting: the figure for `N#Cc1ccc(O[C@H]2CC[C@H](NC(=O)c3ccc(N4CCC(CN5CCN(c6ccc7c(c6)C(=O)N(C6(F)CCC(=O)NC6=O)C7=O)CC5)CC4)nn3)CC2)cc1Cl` (mixture of isomers) [Compound 18, rac-N-((1r,4r)-4-(3-chloro-4-cyanophenoxy)cyclohexyl)-6-(4-((4-(2-(3-fluoro-2,6-dioxopiperidin-3-yl)-1,3-dioxoisoindolin-5-yl)piperazin-1-yl)methyl)piperidin-1-yl)pyridazine-3-carboxamide] is less than 1 nM; for `N#Cc1ccc(O[C@H]2CC[C@H](NC(=O)c3ccc(N4CCC(CN[C@H]5C[C@H](Oc6ccc7c(c6)C(=O)N(C6CCC(=O)NC6=O)C7=O)C5)CC4)nn3)CC2)cc1Cl` (mixture of isomers) [Compound 51, rac-N-((1r,4r)-4-(3-chloro-4-cyanophenoxy)cyclohexyl)-6-(4-((((1r,3r)-3-((2-(2,6-dioxopiperidin-3-yl)-1,3-dioxoisoindolin-5-yl)oxy)cyclobutyl)amino)methyl)piperidin-1-yl)pyridazine-3-carboxamide] it is less than 1 nM.

Still in this test, the particulars now being: degradation of AR ELISA in LNCaP and/or VCaP cells; Table 2C; read-out: DC50 Code*.
`Cc1cc(O[C@H]2C(C)(C)[C@H](NC(=O)c3cnc(N4CCC(CN(C(C)C)[C@H]5C[C@H](Oc6ccc7c(c6)CN(C6CCC(=O)NC6=O)C7=O)C5)CC4)cn3)C2(C)C)cc(C)c1C#N` (mixture of isomers) [compound 126, rac-N-((1r,3r)-3-(4-cyano-3,5-dimethylphenoxy)-2,2,4,4-tetramethylcyclobutyl)-5-(4-((((1r,3r)-3-((2-(2,6-dioxopiperidin-3-yl)-1-oxoisoindolin-5-yl)oxy)cyclobutyl) (isopropyl)amino)methyl)piperidin-1-yl)pyrazine-2-carboxamide]: the 50% degradation concentration (DC50) was more than 100 nM.
Same read-out and setting: under `CC1(C)[C@H](NC(=O)c2ccc(N3CCC(CN4CCN(c5ccc6c(c5)C(=O)N(C5(F)CCC(=O)NC5=O)C6=O)CC4)CC3)cc2)C(C)(C)[C@H]1Oc1ccc(C#N)c(Cl)c1` (mixture of isomers) [compound 129, N-((1r,3r)-3-(3-chloro-4-cyanophenoxy)-2,2,4,4-tetramethylcyclobutyl)-4-(4-((4-(2-(3-fluoro-2,6-dioxopiperidin-3-yl)-1,3-dioxoisoindolin-5-yl)piperazin-1-yl)methyl)piperidin-1-yl)benzamide] stands 1 to 10 nM; under `Cc1cc(O[C@H]2C(C)(C)[C@H](NC(=O)c3cnc(N4CCC(CN(C(C)C)[C@H]5C[C@H](Oc6ccc7c(c6)C(=O)N(C6CCC(=O)NC6=O)C7=O)C5)CC4)nc3C)C2(C)C)cc(C)c1C#N` (mixture of isomers) [compound 146, rac-N-((1r,3r)-3-(4-cyano-3,5-dimethylphenoxy)-2,2,4,4-tetramethylcyclobutyl)-2-(4-((((1r,3r)-3-((2-(2,6-dioxopiperidin-3-yl)-1,3-dioxoisoindolin-5-yl)oxy)cyclobutyl) (isopropyl)amino)methyl)piperidin-1-yl)-4-methylpyrimidine-5-carboxamide], less than 1 nM.
The same measure, in the same setting: under `[2H]C([2H])([2H])Oc1cc(O[C@H]2C(C)(C)[C@H](NC(=O)c3ccc(N4CCC(CN(C(C)C)[C@H]5C[C@H](Oc6cc(OC([2H])([2H])[2H])c7c(c6)C(=O)N(C6CCC(=O)NC6=O)C7=O)C5)CC4)cc3)C2(C)C)ccc1C#N` (mixture of isomers) [compound 149, rac-N-((1r,3r)-3-(4-cyano-3-(methoxy-d3)phenoxy)-2,2,4,4-tetramethylcyclobutyl)-4-(4-((((1r,3r)-3-((2-(2,6-dioxopiperidin-3-yl)-7-(methoxy-d3)-1,3-dioxoisoindolin-5-yl)oxy)cyclobutyl) (isopropyl)amino)methyl)piperidin-1-yl)benzamide] stands less than 1 nM; under `Cc1cc(O[C@H]2C(C)(C)[C@H](NC(=O)c3ccc(N4CCC(OCCN(C)[C@H]5C[C@H](Oc6ccc7c(c6)C(=O)N(C6CCC(=O)NC6=O)C7=O)C5)CC4)cc3)C2(C)C)cc(C)c1C#N` (mixture of isomers) [compound 150, rac-N-((1r,3r)-3-(4-cyano-3,5-dimethylphenoxy)-2,2,4,4-tetramethylcyclobutyl)-4-(4-(2-(((1r,3r)-3-((2-(2,6-dioxopiperidin-3-yl)-1,3-dioxoisoindolin-5-yl)oxy)cyclobutyl) (methyl)amino)ethoxy)piperidin-1-yl)benzamide], less than 1 nM.
Same read-out and setting: the figure for `[2H]C([2H])([2H])Oc1cc(O[C@H]2C[C@H](N(CC3CCN(c4ccc(C(=O)N[C@H]5C(C)(C)[C@H](Oc6cc(C)c(C#N)c(C)c6)C5(C)C)cc4)CC3)C(C)C)C2)cc2c1C(=O)N(C1CCC(=O)NC1=O)C2=O` (mixture of isomers) [compound 153, rac-N-((1r,3r)-3-(4-cyano-3,5-dimethylphenoxy)-2,2,4,4-tetramethylcyclobutyl)-4-(4-((((1r,3r)-3-((2-(2,6-dioxopiperidin-3-yl)-7-(methoxy-d3)-1,3-dioxoisoindolin-5-yl)oxy)cyclobutyl) (isopropyl)amino)methyl)piperidin-1-yl)benzamide] is less than 1 nM; for `Cc1cc(O[C@H]2C(C)(C)[C@H](NC(=O)c3ccc(N4CCC(N(C)[C@H]5C[C@H](Oc6ccc7c(c6)C(=O)N(C6CCC(=O)NC6=O)C7=O)C5)CC4)cc3)C2(C)C)cc(C)c1C#N` (mixture of isomers) [compound 157, rac-N-((1r,3r)-3-(4-cyano-3,5-dimethylphenoxy)-2,2,4,4-tetramethylcyclobutyl)-4-(4-(((1r,3r)-3-((2-(2,6-dioxopiperidin-3-yl)-1,3-dioxoisoindolin-5-yl)oxy)cyclobutyl) (methyl)amino)piperidin-1-yl)benzamide] it is less than 1 nM.
With `[2H]C([2H])([2H])Oc1cc(O[C@H]2C[C@H](N(CC3CCN(c4ccc(C(=O)N[C@H]5C(C)(C)[C@H](Oc6ccc(C#N)c(OC)c6)C5(C)C)cc4)CC3)C(C)C)C2)cc2c1C(=O)N(C1CCC(=O)NC1=O)C2=O` (mixture of isomers) [compound 159, rac-N-((1r,3r)-3-(4-cyano-3-methoxyphenoxy)-2,2,4,4-tetramethylcyclobutyl)-4-(4-((((1r,3r)-3-((2-(2,6-dioxopiperidin-3-yl)-7-(methoxy-d3)-1,3-dioxoisoindolin-5-yl)oxy)cyclobutyl) (isopropyl)amino)methyl)piperidin-1-yl)benzamide], the half-maximal degradation concentration (DC50) was less than 1 nM.
The same measure, in the same setting: under `CCN(C1CCN(c2ccc(C(=O)N[C@H]3C(C)(C)[C@H](Oc4cc(C)c(C#N)c(C)c4)C3(C)C)cc2)CC1)[C@H]1C[C@H](Oc2cc(OC)c3c(c2)C(=O)N(C2CCC(=O)NC2=O)C3=O)C1` (mixture of isomers) [compound 165, rac-N-((1r,3r)-3-(4-cyano-3,5-dimethylphenoxy)-2,2,4,4-tetramethylcyclobutyl)-4-(4-(((1r,3r)-3-((2-(2,6-dioxopiperidin-3-yl)-7-methoxy-1,3-dioxoisoindolin-5-yl)oxy)cyclobutyl) (ethyl)amino)piperidin-1-yl)benzamide] stands less than 1 nM.

Values taken from patent US20260053932A1, “COMPOUNDS AND METHODS FOR THE TARGETED DEGRADATION OF ANDROGEN RECEPTOR AND ASSOCIATED METHODS OF USE” (Arvinas Operations, Inc., priority 2020, published 2026).
